pKi: −log10 of the molar value. Residues, ends and D or L forms follow the SMILES beside them.
Columns and labels:
[1] = target: T1, dengue 2 protease (Dengue virus type 2, UniProt P14340); assay: Dengue 2 protease inhibition, hydrolysis of Z-RR-MCA; assay type: biochemical, dengue 2 virus; parameters: Activity with inhibitors: unit not given here; conditions: for activity at 5 µM: 5 μM inhibitor; for activity at 10 µM: 10 μM inhibitor; for activity at 15 µM: 15 μM inhibitor; for activity at 40 µM: 40 μM inhibitor
T1 construct: The active site of the dengue protease is in the N-terminal part of NS3
T1 sequence (P14340 1476-1653): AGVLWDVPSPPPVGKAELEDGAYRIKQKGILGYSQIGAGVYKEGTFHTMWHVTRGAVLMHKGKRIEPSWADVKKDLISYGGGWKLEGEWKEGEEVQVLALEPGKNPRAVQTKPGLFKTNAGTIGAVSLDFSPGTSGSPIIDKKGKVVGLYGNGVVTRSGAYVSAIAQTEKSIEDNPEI

[2] = target: T1, dengue 2 protease; assay: as above; assay type: biochemical, dengue 2 virus; parameters: unit not given here; conditions: 30 μM of inhibitor; 10 μM Z-RR-MCA, pH 9.0, 37° C.; initial activity in UAF/min
[3] = tested on: DENV2 protease replicon; assay: DENV2 protease replicon assay; assay type: cell-based; conditions: lowest concentration with observed activity in replicon assay
[4] = target: T2, DENV2 protease (Dengue virus type 2, UniProt P14340); assay: DENV2 protease biochemical assay; conditions: 50 μM inhibitor
T2 construct: The active site of the dengue protease is in the N-terminal part of NS3
T2 sequence (P14340 1476-1653): as above
T2 sequence (P14340 1398-1437): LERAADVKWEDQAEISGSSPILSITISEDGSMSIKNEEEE

[5] = target: plasmin (Homo sapiens, UniProt P00747); assay: Plasmin inhibition, fluorimetric enzyme assay; assay type: biochemical; conditions: 36.5° C., read-out: Residual Activity (%) Plasmin
Chain of plasmin (P00747 581-810 limits assumed, species assumed): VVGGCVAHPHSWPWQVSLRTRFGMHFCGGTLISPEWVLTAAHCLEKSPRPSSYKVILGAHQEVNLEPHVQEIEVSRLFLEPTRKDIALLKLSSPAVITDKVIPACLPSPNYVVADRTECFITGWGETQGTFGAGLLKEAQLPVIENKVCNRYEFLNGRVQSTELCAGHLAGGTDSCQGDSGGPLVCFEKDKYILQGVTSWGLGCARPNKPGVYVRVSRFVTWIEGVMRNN
Chain of plasmin (P00747 97-580 partner limits assumed, species assumed): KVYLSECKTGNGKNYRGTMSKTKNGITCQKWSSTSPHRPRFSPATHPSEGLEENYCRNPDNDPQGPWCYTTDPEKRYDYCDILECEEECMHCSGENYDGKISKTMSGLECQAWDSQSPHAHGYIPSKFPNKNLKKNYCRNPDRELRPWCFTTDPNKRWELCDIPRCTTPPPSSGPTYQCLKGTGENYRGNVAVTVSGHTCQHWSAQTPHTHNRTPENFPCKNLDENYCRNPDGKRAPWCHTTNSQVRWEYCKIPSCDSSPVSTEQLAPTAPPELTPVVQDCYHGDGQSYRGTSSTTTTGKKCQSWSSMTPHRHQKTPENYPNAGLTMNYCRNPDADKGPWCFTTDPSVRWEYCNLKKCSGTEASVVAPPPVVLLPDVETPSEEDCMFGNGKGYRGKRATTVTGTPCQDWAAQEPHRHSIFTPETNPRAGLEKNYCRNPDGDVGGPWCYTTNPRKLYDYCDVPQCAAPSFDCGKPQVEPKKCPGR
Protocol: (§1) The enzyme was dissolved in 1 mL MES buffer (10 mM), 1 mM CaCl2, pH 7.0 at 36.5° C. Substrate was added in a concentration 10 times the Km, and the inhibitor compounds of type C (C16-KGnK-C16, C16-KAnK-C16, and C16-RAnR-C16) were added in increasing concentrations (1.0, 5.0, 10.0, 20.0, 40.0 μL) from a stock solution of 2 mg in 1 mL DMSO. The residual activity was measured in a Hitachi F2500 spectrofluorimeter, and plots were fitted using the Grafit® software (Erithracus Software, Horley, Surrey, UK). All the assays were calculated by the Morrison equation for competitive inhibition (eq. 1, [Morrison, 1969]). The amount of substrate used for the tight binding titration experiments follow all the requirements, where [S]<<Km for all enzymes, so the Kiapp=Ki.
(§2) The first group of gemini-like peptide amphiphiles to be screened was that of C16-K(G or A)nK-C16 (compound type C, with R1=n-C15H31, R2=n-C16H33). […] The results of the Ki determination for trypsin, dengue 2 protease, and human furin are given in Table 1A; some general data for the inhibition by this type of compounds are given in Table 1B. For most compounds in Table 1 the Ki could be derived from competitive inhibition experiments. Judging from the Ki values with the relatively simple substrate Z-RR-MCA, the best inhibitors for dengue 2 protease contain alanine (A) rather than glycine (G).

[6] = target: thrombin (Homo sapiens, UniProt P00734); assay: Thrombin inhibition, fluorimetric enzyme assay; assay type: biochemical; conditions: 36.5° C., read-out: Residual Activity (%) Thrombin
Protocol: as §1, with “Kiapp=Ki. […]” for “Kiapp=Ki.”

[7] = target: human furin (Homo sapiens, UniProt P09958); assay: Human furin inhibition, hydrolysis of Ac-RVRR-MCA; assay type: biochemical; conditions: for activity at 5 µM: 5 μM inhibitor; for activity at 10 µM: 10 μM inhibitor; for activity at 15 µM: 15 μM inhibitor; for activity at 40 µM: 40 μM inhibitor
Chain of human furin (P09958 108-794): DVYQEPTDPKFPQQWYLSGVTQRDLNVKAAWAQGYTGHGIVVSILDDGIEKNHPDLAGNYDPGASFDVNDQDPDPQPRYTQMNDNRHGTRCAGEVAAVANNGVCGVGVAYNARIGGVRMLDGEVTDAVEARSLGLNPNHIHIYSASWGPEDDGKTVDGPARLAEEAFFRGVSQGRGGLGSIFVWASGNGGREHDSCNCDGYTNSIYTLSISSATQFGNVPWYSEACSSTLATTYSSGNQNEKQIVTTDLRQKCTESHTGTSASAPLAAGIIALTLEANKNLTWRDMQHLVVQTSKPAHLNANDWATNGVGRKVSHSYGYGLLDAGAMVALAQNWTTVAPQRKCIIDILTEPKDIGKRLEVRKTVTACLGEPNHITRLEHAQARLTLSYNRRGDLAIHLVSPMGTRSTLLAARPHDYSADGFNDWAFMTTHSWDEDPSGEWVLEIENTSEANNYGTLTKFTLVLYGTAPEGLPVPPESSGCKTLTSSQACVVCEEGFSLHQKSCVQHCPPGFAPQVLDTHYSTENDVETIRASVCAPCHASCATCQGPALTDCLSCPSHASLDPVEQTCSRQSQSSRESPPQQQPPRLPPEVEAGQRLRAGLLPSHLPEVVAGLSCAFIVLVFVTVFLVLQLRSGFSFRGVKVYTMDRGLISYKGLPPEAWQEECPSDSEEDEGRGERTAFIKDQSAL
Protocol: as §1
However, for furin we used a correction of Ki app, where [S]˜Km (eq. 2).
Range of Proteases Inhibited by Geminoids, Determination of Ki with Z-RR-MCA (Dengue 2 Protease) and Ac-RVRR-MCA (Furin) (SEQ ID NO:60).

[8] = target: T3, trypsin (Bos taurus, UniProt P00760); assay: Trypsin inhibition, fluorimetric enzyme assay; assay type: biochemical
T3 construct: gene PRSS1
T3 sequence (P00760 24-246): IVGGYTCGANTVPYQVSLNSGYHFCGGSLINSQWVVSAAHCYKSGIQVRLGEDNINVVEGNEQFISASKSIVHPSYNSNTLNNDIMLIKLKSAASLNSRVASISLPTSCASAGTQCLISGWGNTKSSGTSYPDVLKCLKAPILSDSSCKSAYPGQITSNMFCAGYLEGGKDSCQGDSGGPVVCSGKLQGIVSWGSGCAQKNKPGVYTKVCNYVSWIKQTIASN
Protocol: as §1, §2

[9] = target: T1, dengue 2 protease; assay: Dengue 2 protease inhibition in presence of Triton X-100 (detergent test, Nature Protocol); assay type: biochemical, dengue 2 virus; conditions: 0.05% Triton X-100; for Activity with 0.05% Triton: initial activity in UAF/min
From the text: A further investigation of the interactions of the geminoid inhibitors with biological membranes and with membrane-bound proteases is needed. […] The preparation and tests of peptides symmetrically, asymmetrically and singly alkylated with saturated, short (C6), and unsaturated (C18:1) alkyl tails are in progress.

CCCCCCCCCCCCCCCCNC(=O)[C@H](CCCCN)NC(=O)[C@H](C)NC(=O)[C@H](CCCCN)NC(=O)CCCCCCCCCCCCCCC [C16-KAK-C16]
pKi [1]: 6.43 | activity at 2.5 µM ([1]; 2.5 μM inhibitor, 36.5° C.): 87% | activity at 5 µM ([1]; 36.5° C.): 66% | activity at 10 µM ([1]; 36.5° C.): 26% | activity at 15 µM ([1]; 36.5° C.): 15% | activity at 40 µM ([1]; 36.5° C.): 6% | Activity with inhibitors [2]: 0 | Replicon activity [μM] (1) [3]: 0.3 µM | inhibition at 50 µM [4]: 106% | remaining activity at 15 µM ([5]; 15 μM inhibitor): 62% | remaining activity at 40 µM ([5]; 40 μM inhibitor): 20% | remaining activity at 80 µM ([5]; 80 μM inhibitor): 3% | remaining activity at 15 µM ([6]; 15 μM inhibitor): 80% | remaining activity at 40 µM ([6]; 40 μM inhibitor): 64% | remaining activity at 80 µM ([6]; 80 μM inhibitor): 42% | activity at 2.5 µM ([7]; 2.5 μM inhibitor, 36.5° C.): 43% | activity at 5 µM ([7]; 36.5° C.): 30% | activity at 10 µM ([7]; 36.5° C.): 10% | activity at 15 µM ([7]; 36.5° C.): 0% | activity at 40 µM ([7]; 36.5° C.): 0% | pKi ([7]; 10 mM Mes.NaOH, pH 7.0, 2.35 μM Ac-RVRR-MCA, 37° C., read-out: Ki hFurin): 6.27 | pKi [8]: 4.82 | remaining activity at 15 µM ([8]; 15 μM inhibitor, 36.5° C., read-out: Residual Activity (%) Trypsin): 68% | remaining activity at 40 µM ([8]; 40 μM inhibitor, 36.5° C., read-out: Residual Activity (%) Trypsin): 35% | remaining activity at 80 µM ([8]; 80 μM inhibitor, 36.5° C., read-out: Residual Activity (%) Trypsin): 21% | % recovery in presence of Triton ([9]; 30 μM of inhibitor): 41% | Activity with 0.05% Triton ([9]; 30 μM of inhibitor): 91

CCCCCCCCCCCCCCCCNC(=O)[C@H](CCCCN)NC(=O)CNC(=O)CNC(=O)[C@H](CCCCN)NC(=O)CCCCCCCCCCCCCCC [C16-KGGK-C16, C15H31CO-KGGK-NH—C16H33] (HELM PEPTIDE1{[CCCCCCCCCCCCCCCC(=O)[*:2]].K.G.G.K.[CCCCCCCCCCCCCCCCN[*:1]]}$$$$V2.0)
pKi [1]: 5.24 | activity at 5 µM ([1]; 36.5° C.): 88% | activity at 10 µM ([1]; 36.5° C.): 84% | Activity with inhibitors ([1]; 10 μM of inhibitor, 10 μM Z-RR-MCA, pH 9.0, 37° C., initial activity in UAF/min): 10 | activity at 15 µM ([1]; 36.5° C.): 76% | activity at 20 µM ([1]; 20 μM inhibitor, 36.5° C.): 70% | activity at 40 µM ([1]; 36.5° C.): 64% | Replicon activity [μM] (1) [3]: 0.3 µM | inhibition at 50 µM [4]: 104% | remaining activity at 18 µM ([5]; 18 μM inhibitor): 30% | remaining activity at 55 µM ([5]; 55 μM inhibitor): 11% | remaining activity at 85 µM ([5]; 85 μM inhibitor): 4% | remaining activity at 18 µM ([6]; 18 μM inhibitor): 78% | remaining activity at 55 µM ([6]; 55 μM inhibitor): 46% | remaining activity at 85 µM ([6]; 85 μM inhibitor): 33% | activity at 5 µM ([7]; 36.5° C.): 94% | activity at 10 µM ([7]; 36.5° C.): 85% | activity at 15 µM ([7]; 36.5° C.): 76% | activity at 20 µM ([7]; 20 μM inhibitor, 36.5° C.): 67% | activity at 40 µM ([7]; 36.5° C.): 3% | remaining activity at 18 µM ([8]; 18 μM inhibitor, 36.5° C., read-out: Residual Activity (%) Trypsin): 79% | remaining activity at 55 µM ([8]; 55 μM inhibitor, 36.5° C., read-out: Residual Activity (%) Trypsin): 45% | remaining activity at 85 µM ([8]; 85 μM inhibitor, 36.5° C., read-out: Residual Activity (%) Trypsin): 24% | % recovery in presence of Triton ([9]; 10 μM of inhibitor): 73% | Activity with 0.05% Triton ([9]; 10 μM of inhibitor): 160
